# Results: paper PMC7486443, “Generation of Phenothiazine with Potent Anti-TLK1 Activity for Prostate Cancer Therapy” (iScience, 2020)
# Assays:
# Assay in all cases: biochemical
# Design in all cases: DiscoverX KINOMEscan scanMAX competition binding panel, single concentration, percent of control; remaining binding: dose or concentration left out as unconfirmed
# Conditions in all cases: KINOMEscan binding, percent of control; read-out: Table S4_SCANMAX REPORT - related to Fig. 1 / Percent Control
# ACVR1 = ACVR1 (Homo sapiens, UniProt Q04771)
# ADCK3 = target: T1, ADCK3 (Homo sapiens, UniProt Q8NI60)
# T1 construct: gene COQ8A
# BLK = BLK (Homo sapiens, UniProt P51451)
# CLK2 = CLK2 (Homo sapiens, UniProt P49760)
# FGFR3 = FGFR3 (Homo sapiens, UniProt P22607)
# FLT3(ITD) = FLT3(ITD) (Homo sapiens, UniProt P36888, ITD)
# KIT(D816V) = KIT(D816V) (Homo sapiens, UniProt P10721, D816V)
# MARK3 = MARK3 (Homo sapiens, UniProt P27448)
# PDGFRB = PDGFRB (Homo sapiens, UniProt P09619)
# PKMYT1 = PKMYT1 (Homo sapiens, UniProt Q99640)
# RAF1 = RAF1 (Homo sapiens, UniProt P04049)
# [1] = target: T2, RPS6KA4(Kin.Dom.2-C-terminal) (Homo sapiens, UniProt O75676)
# T2 construct: Kin.Dom.2-C-terminal
# [2] = target: T3, RPS6KA5(Kin.Dom.2-C-terminal) (Homo sapiens, UniProt O75582)
# T3 construct: Kin.Dom.2-C-terminal
# SNRK = SNRK (Homo sapiens, UniProt Q9NRH2)
# TBK1 = TBK1 (Homo sapiens, UniProt Q9UHD2)
# TESK1 = TESK1 (Homo sapiens, UniProt Q15569)
# TIE1 = TIE1 (Homo sapiens, UniProt P35590)
# VRK2 = VRK2 (Homo sapiens, UniProt Q86Y07)
# VRK2, sequence (Q86Y07 whole entry): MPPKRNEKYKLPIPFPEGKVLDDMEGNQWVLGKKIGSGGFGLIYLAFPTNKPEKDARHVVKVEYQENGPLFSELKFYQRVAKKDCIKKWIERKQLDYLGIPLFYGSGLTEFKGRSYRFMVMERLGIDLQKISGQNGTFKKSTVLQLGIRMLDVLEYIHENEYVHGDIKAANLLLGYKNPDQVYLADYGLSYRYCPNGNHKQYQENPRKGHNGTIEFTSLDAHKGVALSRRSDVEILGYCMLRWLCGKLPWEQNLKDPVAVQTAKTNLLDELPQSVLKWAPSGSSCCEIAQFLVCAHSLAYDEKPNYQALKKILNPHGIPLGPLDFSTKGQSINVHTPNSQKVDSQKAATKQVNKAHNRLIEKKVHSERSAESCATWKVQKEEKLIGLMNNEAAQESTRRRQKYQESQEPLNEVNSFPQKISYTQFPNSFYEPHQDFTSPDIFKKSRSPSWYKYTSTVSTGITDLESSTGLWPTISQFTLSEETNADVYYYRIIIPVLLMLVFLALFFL
# TESK1, sequence (Q15569 whole entry): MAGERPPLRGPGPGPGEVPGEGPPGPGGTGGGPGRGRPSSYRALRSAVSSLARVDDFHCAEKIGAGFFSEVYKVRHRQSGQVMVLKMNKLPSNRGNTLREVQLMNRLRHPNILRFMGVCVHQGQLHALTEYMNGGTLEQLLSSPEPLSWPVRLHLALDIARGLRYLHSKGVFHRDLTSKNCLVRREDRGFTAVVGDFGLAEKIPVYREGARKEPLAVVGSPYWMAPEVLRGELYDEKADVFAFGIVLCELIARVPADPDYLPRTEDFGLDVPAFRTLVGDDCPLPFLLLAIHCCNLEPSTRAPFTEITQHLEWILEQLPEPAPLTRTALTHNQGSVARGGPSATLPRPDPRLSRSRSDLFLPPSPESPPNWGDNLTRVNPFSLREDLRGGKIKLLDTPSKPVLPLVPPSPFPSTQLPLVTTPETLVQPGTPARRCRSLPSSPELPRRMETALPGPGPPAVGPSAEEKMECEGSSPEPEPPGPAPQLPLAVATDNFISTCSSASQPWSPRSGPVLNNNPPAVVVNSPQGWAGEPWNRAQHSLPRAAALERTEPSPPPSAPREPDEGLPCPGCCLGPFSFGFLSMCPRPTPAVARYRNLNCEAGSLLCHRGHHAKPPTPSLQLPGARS
# SNRK, sequence (Q9NRH2 whole entry): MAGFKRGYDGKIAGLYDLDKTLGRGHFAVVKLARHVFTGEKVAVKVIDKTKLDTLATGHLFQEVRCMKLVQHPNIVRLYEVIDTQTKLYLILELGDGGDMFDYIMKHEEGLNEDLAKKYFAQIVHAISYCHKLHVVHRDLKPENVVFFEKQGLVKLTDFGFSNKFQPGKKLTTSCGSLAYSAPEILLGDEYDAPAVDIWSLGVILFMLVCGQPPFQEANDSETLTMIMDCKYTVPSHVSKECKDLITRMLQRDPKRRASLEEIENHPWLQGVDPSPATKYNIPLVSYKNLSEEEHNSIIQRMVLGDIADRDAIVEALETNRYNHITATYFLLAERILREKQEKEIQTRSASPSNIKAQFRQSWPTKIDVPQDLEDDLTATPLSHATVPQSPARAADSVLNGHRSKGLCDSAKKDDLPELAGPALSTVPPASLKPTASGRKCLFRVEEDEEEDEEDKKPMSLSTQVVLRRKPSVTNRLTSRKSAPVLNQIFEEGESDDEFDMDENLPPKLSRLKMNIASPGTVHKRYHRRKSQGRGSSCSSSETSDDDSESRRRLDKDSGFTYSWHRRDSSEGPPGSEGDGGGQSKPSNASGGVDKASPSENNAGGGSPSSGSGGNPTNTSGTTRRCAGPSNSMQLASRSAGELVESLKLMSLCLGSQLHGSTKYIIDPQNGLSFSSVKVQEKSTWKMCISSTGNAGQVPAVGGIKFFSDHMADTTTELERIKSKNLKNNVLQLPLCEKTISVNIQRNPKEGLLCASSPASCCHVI
# FGFR3, sequence (P22607 whole entry): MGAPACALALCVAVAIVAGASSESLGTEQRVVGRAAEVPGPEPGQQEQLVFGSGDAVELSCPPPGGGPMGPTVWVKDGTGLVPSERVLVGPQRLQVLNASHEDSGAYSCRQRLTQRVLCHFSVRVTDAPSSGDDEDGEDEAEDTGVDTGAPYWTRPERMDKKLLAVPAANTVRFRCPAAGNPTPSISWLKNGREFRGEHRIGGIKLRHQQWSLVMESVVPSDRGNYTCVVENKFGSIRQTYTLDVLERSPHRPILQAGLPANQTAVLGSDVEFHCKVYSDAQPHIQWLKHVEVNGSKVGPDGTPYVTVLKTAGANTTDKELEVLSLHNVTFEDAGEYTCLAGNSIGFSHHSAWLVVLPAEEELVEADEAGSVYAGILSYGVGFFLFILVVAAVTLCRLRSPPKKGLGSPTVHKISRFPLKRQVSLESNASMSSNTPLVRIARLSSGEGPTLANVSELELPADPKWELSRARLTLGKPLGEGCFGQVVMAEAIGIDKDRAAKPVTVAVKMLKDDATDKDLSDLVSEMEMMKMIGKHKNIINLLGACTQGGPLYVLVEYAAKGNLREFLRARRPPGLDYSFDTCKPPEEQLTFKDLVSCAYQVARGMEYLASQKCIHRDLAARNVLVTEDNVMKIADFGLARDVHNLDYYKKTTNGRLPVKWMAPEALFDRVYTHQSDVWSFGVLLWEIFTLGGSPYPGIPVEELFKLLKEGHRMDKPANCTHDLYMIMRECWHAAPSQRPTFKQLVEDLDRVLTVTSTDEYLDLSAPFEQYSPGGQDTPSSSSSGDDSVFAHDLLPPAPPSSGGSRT
# MARK3, sequence (P27448 whole entry): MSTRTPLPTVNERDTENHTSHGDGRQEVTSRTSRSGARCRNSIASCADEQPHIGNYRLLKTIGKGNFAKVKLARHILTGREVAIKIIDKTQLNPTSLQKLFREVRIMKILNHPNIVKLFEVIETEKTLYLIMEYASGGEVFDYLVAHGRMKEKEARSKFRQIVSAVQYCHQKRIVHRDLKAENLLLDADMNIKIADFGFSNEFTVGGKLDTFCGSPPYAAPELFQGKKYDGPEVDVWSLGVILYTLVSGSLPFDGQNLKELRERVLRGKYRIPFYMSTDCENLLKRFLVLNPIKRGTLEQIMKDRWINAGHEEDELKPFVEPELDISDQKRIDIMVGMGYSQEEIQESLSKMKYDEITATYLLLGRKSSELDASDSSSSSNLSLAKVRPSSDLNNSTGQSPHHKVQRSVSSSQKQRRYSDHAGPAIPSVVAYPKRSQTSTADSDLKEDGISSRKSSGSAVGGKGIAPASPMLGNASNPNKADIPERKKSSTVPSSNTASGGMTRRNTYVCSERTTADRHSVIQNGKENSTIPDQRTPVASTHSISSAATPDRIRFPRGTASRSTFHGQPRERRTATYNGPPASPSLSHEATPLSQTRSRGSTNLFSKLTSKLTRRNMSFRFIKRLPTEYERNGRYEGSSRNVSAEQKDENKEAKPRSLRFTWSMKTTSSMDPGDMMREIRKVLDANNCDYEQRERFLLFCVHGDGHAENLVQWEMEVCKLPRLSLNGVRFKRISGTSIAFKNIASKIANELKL
# KIT(D816V), sequence (P10721 whole entry D816V): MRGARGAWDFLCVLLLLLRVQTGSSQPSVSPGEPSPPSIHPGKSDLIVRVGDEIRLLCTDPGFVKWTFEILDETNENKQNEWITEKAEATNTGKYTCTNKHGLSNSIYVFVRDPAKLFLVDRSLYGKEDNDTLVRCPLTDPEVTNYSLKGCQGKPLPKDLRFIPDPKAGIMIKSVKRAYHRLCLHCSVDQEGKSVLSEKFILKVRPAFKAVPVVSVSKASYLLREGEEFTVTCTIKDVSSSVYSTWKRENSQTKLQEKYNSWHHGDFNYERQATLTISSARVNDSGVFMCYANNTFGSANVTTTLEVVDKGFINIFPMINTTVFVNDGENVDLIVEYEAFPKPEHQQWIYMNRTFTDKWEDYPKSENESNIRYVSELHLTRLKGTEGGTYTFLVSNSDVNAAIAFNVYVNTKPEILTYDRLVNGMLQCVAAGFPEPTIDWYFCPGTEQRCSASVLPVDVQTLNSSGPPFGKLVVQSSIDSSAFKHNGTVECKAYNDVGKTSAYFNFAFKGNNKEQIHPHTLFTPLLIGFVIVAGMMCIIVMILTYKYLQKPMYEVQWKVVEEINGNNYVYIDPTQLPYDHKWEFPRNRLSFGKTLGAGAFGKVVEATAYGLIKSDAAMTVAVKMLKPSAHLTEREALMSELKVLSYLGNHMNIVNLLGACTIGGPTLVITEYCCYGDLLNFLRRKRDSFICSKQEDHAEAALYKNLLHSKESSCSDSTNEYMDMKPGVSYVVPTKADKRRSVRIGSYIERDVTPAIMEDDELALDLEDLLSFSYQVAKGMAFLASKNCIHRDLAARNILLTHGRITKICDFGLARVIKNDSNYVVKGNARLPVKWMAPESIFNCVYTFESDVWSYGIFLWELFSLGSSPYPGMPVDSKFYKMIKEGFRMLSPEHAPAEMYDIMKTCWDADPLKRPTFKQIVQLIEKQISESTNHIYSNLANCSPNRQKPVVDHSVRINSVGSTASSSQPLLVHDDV
# PKMYT1, sequence (Q99640 whole entry): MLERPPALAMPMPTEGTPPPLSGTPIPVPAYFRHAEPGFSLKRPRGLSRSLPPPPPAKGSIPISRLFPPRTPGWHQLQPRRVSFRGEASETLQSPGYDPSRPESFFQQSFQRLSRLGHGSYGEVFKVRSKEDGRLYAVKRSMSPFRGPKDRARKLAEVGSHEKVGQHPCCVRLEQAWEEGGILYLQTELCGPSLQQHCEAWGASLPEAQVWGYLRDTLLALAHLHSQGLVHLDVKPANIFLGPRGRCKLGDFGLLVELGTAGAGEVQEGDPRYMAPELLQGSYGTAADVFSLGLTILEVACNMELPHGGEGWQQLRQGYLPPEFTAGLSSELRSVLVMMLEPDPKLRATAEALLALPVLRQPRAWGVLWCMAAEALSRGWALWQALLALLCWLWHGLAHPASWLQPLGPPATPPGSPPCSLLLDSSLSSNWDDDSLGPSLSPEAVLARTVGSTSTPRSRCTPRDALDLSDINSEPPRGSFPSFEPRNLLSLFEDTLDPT
smiles,measurement,setting,value
c1ccc2c(c1)Sc1ccccc1N2CCN1CCOCC1 [J54],remaining binding,ACVR1,94%
same,remaining binding,ADCK3,100%
same,remaining binding,BLK,60%
same,remaining binding,CLK2,79%
same,remaining binding,FGFR3,97%
same,remaining binding,FLT3(ITD),68%
same,remaining binding,KIT(D816V),96%
same,remaining binding,MARK3,100%
same,remaining binding,PDGFRB,100%
same,remaining binding,PKMYT1,100%
same,remaining binding,RAF1,100%
same,remaining binding,[1],94%
same,remaining binding,[2],100%
same,remaining binding,SNRK,59%
same,remaining binding,TBK1,89%
same,remaining binding,TESK1,100%
same,remaining binding,TIE1,98%
same,remaining binding,VRK2,70%
